# Assay results published in PubChem BioAssay AID2060601 (Molecular Pharmacology Branch, DTP, NCI, 2025).
# System: 874868-142-R-J2-PDC complex spheroids, growth % test/control
# Experiment: Anticancer human tumor 874868-142-R-J2-PDC patient-derived head and neck squamous carcinoma cell line growth inhibition [CLK]
# Conditions: for IC50: curve of first compound; for viability, T/C: stronger effect = lower value
# Excerpt: A high-throughput screen of multi-cell type tumor spheroids was designed to identify active combinations of […] and targeted small molecules. Complex spheroids include a stromal component modeled by human endothelial cells (HUVEC) and fibroblasts modeled by human mesenchymal stem cells (MSCs). The concentration ranges selected for each drug and investigational agent were based upon clinically achievable concentrations if the clinical Cmax of the agent was known.
# Compounds. The drugs and investigational agents: cirtuvivint (SM08502; NSC835563), CC-671 (NSC850746), vemurafenib (NSC761431), tapotoclax (NSC804041), sotorasib (NSC818433), adagrasib (NSC831453), MRTX-1133 (NSC836407), BAY2416964 (NSC825713), copanlisib (NSC816437), inavolisib (NSC800729), abemaciclib (NSC768073), osimertinib (NSC779217), entinostat (NSC756642), eltanexor (KPT-8602, NSC794443), venetoclax (NSC766270), ceralasertib (NSC777638), bortezomib (NSC756655), olaparib (NSC753686), talazoparib (NSC767125), alisertib (NSC759677), peposertib (NSC802822), gemcitabine (NSC613327), 5-fluorouracil (NSC19893), SN-38 (NSC673596), oxaliplatin (NSC266046), paclitaxel (NSC125973), and doxorubicin (NSC123127), were obtained from the National Cancer Institute (NCI) Developmental Therapeutics Program Chemical Repository. The FDA-approved anticancer drug set is available from the Developmental Therapeutics Program at https://dtp.cancer.gov/organization/dscb/obtaining/available plates.htm. […] The stock solutions were prepared in dimethyl sulfoxide (DMSO, Sigma-Aldrich, St. Louis, MO, cat. D2650), except for the platinum complexes which were prepared in saline (Quality Biological, Gaithersburg, MD, cat. 114-055-101), at 800-fold the tested concentration and stored at -70 degrees C prior to their use. All drugs and investigational agents were tested over a range starting from a high concentration at or near the clinical Cmax and decreasing in half-log increments. If the clinical Cmax for an agent had not been determined, the highest concentration tested was 10 microM.
# Cell Culture. All cells were maintained in an incubator at 37 degrees C and 5% CO2 with 95% humidity. The PDC lines were cultured according to standard operating procedures established by the NCI PDMR. Briefly, all PDCs were thawed and cultured in Matrigel-coated flasks prepared with a working solution of 1X Ham's F-12 nutrient mix, without supplementation (Invitrogen, Waltham, MA, cat. 11765054), 100 U/mL penicillin-streptomycin (Invitrogen, cat. 15140122), and 2.5% Matrigel (Corning Inc., Corning, NY, cat. 354248) for the first three passages. The 947758-054-R-J2-PDC line was cultured in 6B/Colon 1A media, which includes advanced DMEM/F-12 (Thermo Fisher Scientific, cat. 12634028), 10 mM HEPES (Thermo Fisher Scientific, cat. 15630080), 1X GlutaMAX supplement (Thermo Fisher Scientific, cat. 35050061), 0.1 mg/mL primocin (InvivoGen, cat. ant-pm-2), 10% defined fetal bovine serum, heat inactivated (HyClone Laboratories Inc., cat. SH30070.03HI), 1.25 mM N-Acetyl-L-cysteine (Sigma-Aldrich, cat. A9165), 10 mM nicotinamide (Sigma-Aldrich, cat. N0636), 1X B-27 supplement (Thermo Fisher Scientific, cat. 17504044), 1X N-2 supplement (Thermo Fisher Scientific, cat. 17502048), and 10 microM Y-27632 dihydrochloride (Tocris Bioscience, cat. 1254). The 876862-298-R-J1-PDC was cultured in 6E media, which includes all 6B/Colon 1A media components plus 50% L-WRN conditioned media (ATCC, cat. CRL-3276), 50 ng/mL recombinant human EGF recombinant protein (hEGF; Thermo Fisher Scientific, cat. PHG0311), 10 ng/mL recombinant human fibroblast growth factor 10 (hGFG-10; PeproTech, cat. 100-26), 1 ng/mL recombinant human fibroblast growth factor 2 (hFGF-2; PeproTech, cat. 100-18B), and 1 µM prostaglandin E2 (PGE2; Tocris, cat. 2296). The 227483-062-R1-J1-PDC line was cultured in Panc media, containing all 6E components except hFGF-2, with the addition of 500 nM SB-431542 (Selleckchem, cat. S1067) and 10 nM gastrin (Tocris, cat. 3006). […]
# [1] = second compound 0.0316 µM, first compound 0.0316 µM
# [2] = second compound 0.0316 µM, first compound 0.1 µM
# [3] = second compound 0.0316 µM, first compound 0.316 µM
# [4] = second compound 0.0316 µM, first compound 1 µM
# [5] = second compound 0.0316 µM, first compound 3.16 µM
# [6] = second compound 0.0316 µM, first compound 10 µM
# [7] = second compound 0.1 µM, first compound 0.0316 µM
# [8] = second compound 0.1 µM, first compound 0.1 µM
# [9] = second compound 0.1 µM, first compound 0.316 µM
# [10] = second compound 0.1 µM, first compound 1 µM
# [11] = second compound 0.1 µM, first compound 3.16 µM
# [12] = second compound 0.1 µM, first compound 10 µM
# [13] = second compound 0.316 µM, first compound 0.0316 µM
# [14] = second compound 0.316 µM, first compound 0.1 µM
# [15] = second compound 0.316 µM, first compound 0.316 µM
# [16] = second compound 0.316 µM, first compound 1 µM
# [17] = second compound 0.316 µM, first compound 3.16 µM
# [18] = second compound 0.316 µM, first compound 10 µM
# [19] = second compound 1 µM, first compound 0.0316 µM
# [20] = second compound 1 µM, first compound 0.1 µM
# [21] = second compound 1 µM, first compound 0.316 µM
# [22] = second compound 1 µM, first compound 1 µM
# [23] = second compound 1 µM, first compound 3.16 µM
# [24] = second compound 1 µM, first compound 10 µM
# [25] = second compound 3.16 µM, first compound 0.0316 µM
# [26] = second compound 3.16 µM, first compound 0.1 µM
# [27] = second compound 3.16 µM, first compound 0.316 µM
# [28] = second compound 3.16 µM, first compound 1 µM
# [29] = second compound 3.16 µM, first compound 3.16 µM
# [30] = second compound 3.16 µM, first compound 10 µM
# [31] = second compound 10 µM, first compound 0.0316 µM
# [32] = second compound 10 µM, first compound 0.1 µM
# [33] = second compound 10 µM, first compound 0.316 µM
# [34] = second compound 10 µM, first compound 1 µM
# [35] = second compound 10 µM, first compound 3.16 µM
# [36] = second compound 10 µM, first compound 10 µM
# 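Note: spheroids exposed to the compounds for 7 days.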
compound,measurement,setting,value
C=C(F)C(=O)N1CCN(c2nc(OCC3CCCN3C)nc3c2CCN(c2cccc4cccc(Cl)c24)C3)CC1CC#N (centres undefined) + CN1CCN(c2cc(C(=O)Nc3cc4cc(-c5cnn(C)c5)ccc4cn3)ccn2)CC1,IC50,second compound 0.0316 µM,4160 nM
same,IC50,second compound 0.1 µM,2800 nM
same,IC50,second compound 0.316 µM,< 31.6 nM
same,IC50,second compound 1 µM,< 31.6 nM
same,IC50,second compound 3.16 µM,< 31.6 nM
same,IC50,second compound 10 µM,< 31.6 nM
same,"viability, T/C",[1],99.9%
same,"viability, T/C",[2],85.3%
same,"viability, T/C",[3],92%
same,"viability, T/C",[4],93.2%
same,"viability, T/C",[5],60.8%
same,"viability, T/C",[6],15.7%
same,"viability, T/C",[7],69.1%
same,"viability, T/C",[8],70%
same,"viability, T/C",[9],75%
same,"viability, T/C",[10],62%
same,"viability, T/C",[11],48.8%
same,"viability, T/C",[12],4.16%
same,"viability, T/C",[13],16.7%
same,"viability, T/C",[14],17.8%
same,"viability, T/C",[15],22.6%
same,"viability, T/C",[16],16.4%
same,"viability, T/C",[17],23.8%
same,"viability, T/C",[18],0.16%
same,"viability, T/C",[19],0.51%
same,"viability, T/C",[20],0.57%
same,"viability, T/C",[21],2.72%
same,"viability, T/C",[22],0.61%
same,"viability, T/C",[23],0.21%
same,"viability, T/C",[24],0.13%
same,"viability, T/C",[25],0.32%
same,"viability, T/C",[26],0.27%
same,"viability, T/C",[27],0.26%
same,"viability, T/C",[28],0.45%
same,"viability, T/C",[29],1.88%
same,"viability, T/C",[30],0.15%
same,"viability, T/C",[31],0.24%
same,"viability, T/C",[32],0.24%
same,"viability, T/C",[33],2.62%
same,"viability, T/C",[34],0.28%
same,"viability, T/C",[35],0.53%
same,"viability, T/C",[36],0.23%
CC(CO)NC(=O)c1cc(-c2ccc(Cl)cc2)nn(-c2cnn(C)c2)c1=O (centres undefined) + CN1CCN(c2cc(C(=O)Nc3cc4cc(-c5cnn(C)c5)ccc4cn3)ccn2)CC1,IC50,second compound 0.0316 µM,> 10000 nM
same,IC50,second compound 0.1 µM,> 10000 nM
same,IC50,second compound 0.316 µM,< 31.6 nM
same,IC50,second compound 1 µM,< 31.6 nM
same,IC50,second compound 3.16 µM,< 31.6 nM
same,IC50,second compound 10 µM,< 31.6 nM
same,"viability, T/C",[1],105%
same,"viability, T/C",[2],99.2%
same,"viability, T/C",[3],82.4%
same,"viability, T/C",[4],92.8%
same,"viability, T/C",[5],93%
same,"viability, T/C",[6],83.8%
same,"viability, T/C",[7],76.1%
same,"viability, T/C",[8],72.2%
same,"viability, T/C",[9],65.8%
same,"viability, T/C",[10],67.9%
same,"viability, T/C",[11],68.5%
same,"viability, T/C",[12],77.2%
same,"viability, T/C",[13],19.4%
same,"viability, T/C",[14],24.8%
same,"viability, T/C",[15],20.6%
same,"viability, T/C",[16],19.1%
same,"viability, T/C",[17],20.2%
same,"viability, T/C",[18],29.1%
same,"viability, T/C",[19],0.42%
same,"viability, T/C",[20],5.08%
same,"viability, T/C",[21],2.66%
same,"viability, T/C",[22],0.31%
same,"viability, T/C",[23],0.63%
same,"viability, T/C",[24],1.19%
same,"viability, T/C",[25],0.31%
same,"viability, T/C",[26],0.77%
same,"viability, T/C",[27],0.29%
same,"viability, T/C",[28],0.32%
same,"viability, T/C",[29],3.04%
same,"viability, T/C",[30],2.75%
same,"viability, T/C",[31],0.18%
same,"viability, T/C",[32],0.21%
same,"viability, T/C",[33],2.19%
same,"viability, T/C",[34],0.22%
same,"viability, T/C",[35],3.03%
same,"viability, T/C",[36],0.28%
